For 24 compounds, IC50 results are on record in patent US20170226081A1, “GLUCOSE TRANSPORT INHIBITORS” (Bayer Pharma Aktiengesellschaft, priority 2014, published 2017).

The target in the assay is T1, GLUT1 (Homo sapiens, UniProt P11166).
T1 construct: endogenous in cells
T1 sequence (P11166 1-492): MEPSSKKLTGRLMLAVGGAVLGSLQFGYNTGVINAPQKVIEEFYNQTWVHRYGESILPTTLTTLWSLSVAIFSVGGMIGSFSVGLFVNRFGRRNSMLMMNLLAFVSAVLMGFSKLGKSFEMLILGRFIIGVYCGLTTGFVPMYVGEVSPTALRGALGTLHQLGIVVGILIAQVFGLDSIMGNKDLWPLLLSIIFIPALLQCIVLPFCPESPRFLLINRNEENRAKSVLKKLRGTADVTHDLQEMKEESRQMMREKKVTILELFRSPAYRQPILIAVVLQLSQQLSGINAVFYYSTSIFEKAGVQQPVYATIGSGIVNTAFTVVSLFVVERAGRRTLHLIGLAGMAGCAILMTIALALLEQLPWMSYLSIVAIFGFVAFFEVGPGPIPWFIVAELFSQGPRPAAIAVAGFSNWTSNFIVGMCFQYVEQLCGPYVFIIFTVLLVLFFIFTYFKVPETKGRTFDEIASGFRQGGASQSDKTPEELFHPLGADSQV
The assay can be described thus: Indirect measurement of GLUT activity by quantification of intracellular ATP levels (glucose induced ATP increase). Conditions: DLD1 cells; 1 mM glucose, 1 uM Rotenone, 15 min; standardized to cytochalasin B IC50 values; read-out: IC50 regarding glucose induced ATP increase (GLUT1 inhibition). The assay is classed as cell-based. The text has this:
It is well known that a combination of small-molecule inhibitors of mitochondrial electron transport chain and glucose catabolism synergistically suppress ATP production and impair cellular viability (Ulanovskaya et al., 2008, 2011; Liu, et al. 2001). We therefore used DLD1 or CHO-K1 cells in combination with an oxidative phosphorylation inhibitor to identify GLUT inhibitors. Cell lines were maintained in DMEM medium supplemented with 10% FCS and 1% Penicillin-Streptomycin solution and 2% Glutamax. The cells were treated with trypsin and seeded into 384 plates at a density of 4000 cells/well. The cells were then cultured overnight in glucose free media containing 1% FCS to reduce intracellular ATP levels. After 24 h the cells were incubated at 37° C. containing the appropriate glucose or in case of GLUT2 fructose concentration (1 mM and 30 mM respectively) with or without compounds and 1 uM Rotenone for 15 min. The CellTiter-Glo® Luminescent Cell Viability Assay from Promega was then used to measure ATP levels. Compounds able to reduce the ATP Levels within 15 min of glucose application were considered to be glucose uptake inhibitors.

The term IC50 denotes the concentration at which inhibition is half-maximal.

Structures are written as SMILES.

For the compound `O=C(Nc1cn(Cc2ccc(F)cc2)nc1C(F)(F)F)c1cc(C(F)(F)F)nc2ccc(Br)cc12` [Example 31, 6-bromo-N-[1-(4-fluorobenzyl)-3-(trifluoromethyl)-1H-pyrazol-4-yl]-2-(trifluoromethyl)quinoline-4-carboxamide], the IC50 came to 1180 nM.

Turning to `O=C(Nc1cn(Cc2ccc(F)cc2)nc1C(F)(F)F)c1cc(C(F)(F)F)nc2c(Cl)cc(Cl)cc12` [Example 32, 6,8-dichloro-N-[1-(4-fluorobenzyl)-3-(trifluoromethyl)-1H-pyrazol-4-yl]-2-(trifluoromethyl)quinoline-4-carboxamide], the IC50 worked out at 763 nM.

As to `Cc1ccc2nc(C)cc(C(=O)Nc3cn(Cc4ccc(F)cc4)nc3C(F)(F)F)c2c1` [Example 33, N-[1-(4-fluorobenzyl)-3-(trifluoromethyl)-1H-pyrazol-4-yl]-2,6-dimethylquinoline-4-carboxamide], the IC50 turned out to be 183 nM.

Consider `O=C(Nc1cn(Cc2ccc(F)cc2)nc1C(F)(F)F)c1cc(C(F)(F)F)nc2cc(F)c(F)cc12` [Example 34, 6,7-difluoro-N-[1-(4-fluorobenzyl)-3-(trifluoromethyl)-1H-pyrazol-4-yl]-2-(trifluoromethyl)quinoline-4-carboxamide], for which the IC50 came out at 2040 nM.

In the case of `N#Cc1ccc(Cn2cc(NC(=O)c3cc(C(N)=O)nc4cc(F)c(Cl)cc34)c(C(F)(F)F)n2)cc1` [Example 35, 6-chloro-N^4-[1-(4-cyanobenzyl)-3-(trifluoromethyl)-1H-pyrazol-4-yl]-7-fluoroquinoline-2,4-dicarboxamide], the IC50 stood at 4.4 nM.

For `N#Cc1ccc(Cn2cc(NC(=O)c3cc(C(F)(F)F)nc4ccc(Br)cc34)c(C(F)(F)F)n2)cc1` [Example 36, 6-bromo-N-[1-(4-cyanobenzyl)-3-(trifluoromethyl)-1H-pyrazol-4-yl]-2-(trifluoromethyl)quinoline-4-carboxamide], the IC50 is 84 nM.

Regarding `COc1cc(C(=O)Nc2cn(Cc3ccc(C#N)cc3)nc2C(F)(F)F)c2ccccc2n1` [Example 37, N-[1-(4-cyanobenzyl)-3-(trifluoromethyl)-1H-pyrazol-4-yl]-2-methoxyquinoline-4-carboxamide], the IC50 is 179 nM.

On to `N#Cc1ccc(Cn2cc(NC(=O)c3cc(C(N)=O)nc4ccccc34)c(C(F)(F)F)n2)cc1` [Example 39, N^4-[1-(4-cyanobenzyl)-3-(trifluoromethyl)-1H-pyrazol-4-yl]quinoline-2,4-dicarboxamide], for which the IC50 turned out to be 20 nM.

As to `NC(=O)c1cc(C(=O)Nc2cn(Cc3ccncc3)nc2C(F)(F)F)c2ccccc2n1` [Example 41, N^4-[1-(pyridin-4-ylmethyl)-3-(trifluoromethyl)-1H-pyrazol-4-yl]quinoline-2,4-dicarboxamide], the half-inhibitory concentration (IC50) was determined as 422 nM.

On to `CS(=O)(=O)c1ccc(Cn2cc(NC(=O)c3cc(C(N)=O)nc4ccccc34)c(C(F)(F)F)n2)cc1` [Example 42, N^4-{1-[4-(methylsulfonyl)benzyl]-3-(trifluoromethyl)-1H-pyrazol-4-yl}quinoline-2,4-dicarboxamide], for which the IC50 was 61 nM.

Turning to `CS(=O)(=O)c1ccc(Cn2cc(NC(=O)c3cc(C(F)(F)F)nc4ccc(Br)cc34)c(C(F)(F)F)n2)cc1` [Example 43, 6-bromo-N-{1-[4-(methylsulfonyl)benzyl]-3-(trifluoromethyl)-1H-pyrazol-4-yl}-2-(trifluoromethyl)quinoline-4-carboxamide], the IC50 is 440 nM.

`CS(=O)(=O)c1ccc(Cn2cc(NC(=O)c3cc(C(N)=O)nc4cc(F)c(Cl)cc34)c(C(F)(F)F)n2)cc1` [Example 44, 6-chloro-7-fluoro-N^4-{1-[4-(methylsulfonyl)benzyl]-3-(trifluoromethyl)-1H-pyrazol-4-yl}quinoline-2,4-dicarboxamide]: the IC50 was 11 nM.

Regarding `CS(=O)(=O)c1ccc(Cn2cc(NC(=O)c3cc(C(N)=O)nc4cc(F)ccc34)c(C(F)(F)F)n2)cc1` [Example 45, 7-fluoro-N^4-{1-[4-(methylsulfonyl)benzyl]-3-(trifluoromethyl)-1H-pyrazol-4-yl}quinoline-2,4-dicarboxamide], the IC50 was 126 nM.

In the case of `COc1ccc(Cn2cc(NC(=O)c3cc(C(N)=O)nc4cc(F)c(Cl)cc34)c(C(F)(F)F)n2)cc1` [Example 46, 6-chloro-7-fluoro-N^4-[1-(4-methoxybenzyl)-3-(trifluoromethyl)-1H-pyrazol-4-yl]quinoline-2,4-dicarboxamide], the IC50 was 4.7 nM.

Consider `COc1ccc(Cn2cc(NC(=O)c3cc(C(F)(F)F)nc4ccc(Br)cc34)c(C(F)(F)F)n2)cc1` [Example 47, 6-bromo-N-[1-(4-methoxybenzyl)-3-(trifluoromethyl)-1H-pyrazol-4-yl]-2-(trifluoromethyl)quinoline-4-carboxamide], for which the 50% inhibitory concentration (IC50) worked out at 138 nM.

For `COc1ccc(Cn2cc(NC(=O)c3cc(OC)nc4ccccc34)c(C(F)(F)F)n2)cc1` [Example 48, 2-methoxy-N-[1-(4-methoxybenzyl)-3-(trifluoromethyl)-1H-pyrazol-4-yl]quinoline-4-carboxamide], the IC50 turned out to be 193 nM.

For `COc1ccc(Cn2cc(NC(=O)c3cc(C(N)=O)nc4ccccc34)c(C(F)(F)F)n2)cc1` [Example 49, N^4-[1-(4-methoxybenzyl)-3-(trifluoromethyl)-1H-pyrazol-4-yl]quinoline-2,4-dicarboxamide], the IC50 is 4.1 nM.

Regarding `COc1ccc(Cn2cc(NC(=O)c3cc(C(N)=O)nc4cc(F)ccc34)c(C(F)(F)F)n2)cc1` [Example 50, 7-fluoro-N^4-[1-(4-methoxybenzyl)-3-(trifluoromethyl)-1H-pyrazol-4-yl]quinoline-2,4-dicarboxamide], the IC50 came out at 3.9 nM.

For `Cc1nn(Cc2ccc(C#N)cc2)cc1NC(=O)c1cc(C2CC2)nc2ccc(Br)cc12` [Example 51, 6-bromo-N-[1-(4-cyanobenzyl)-3-methyl-1H-pyrazol-4-yl]-2-cyclopropylquinoline-4-carboxamide], the IC50 was found to be 5.2 nM.

For `Cc1nn(Cc2ccc(C#N)cc2)cc1NC(=O)c1cc(C(N)=O)nc2cc(F)ccc12` [Example 52, N^4-[1-(4-cyanobenzyl)-3-methyl-1H-pyrazol-4-yl]-7-fluoroquinoline-2,4-dicarboxamide], the IC50 worked out at 3.1 nM.

On to `Cc1nn(Cc2ccc(C#N)cc2)cc1NC(=O)c1cc(C(N)=O)nc2cc(F)c(Cl)cc12` [Example 53, 6-chloro-N^4-[1-(4-cyanobenzyl)-3-methyl-1H-pyrazol-4-yl]-7-fluoroquinoline-2,4-dicarboxamide], for which the IC50 worked out at 4 nM.

As for `Cc1ccc(Cn2cc(NC(=O)c3cc(C(N)=O)nc4ccccc34)c(C)n2)cc1` [Example 54, N^4-[3-methyl-1-(4-methylbenzyl)-1H-pyrazol-4-yl]quinoline-2,4-dicarboxamide], the IC50 is 13 nM.

For the compound `Cc1nn(Cc2ccc(F)c(F)c2)cc1NC(=O)c1cc(C(N)=O)nc2ccccc12` [Example 55, N^4-[1-(3,4-difluorobenzyl)-3-methyl-1H-pyrazol-4-yl]quinoline-2,4-dicarboxamide], the IC50 worked out at 83 nM.

For the compound `Cc1nn(Cc2cccc(F)c2)cc1NC(=O)c1cc(C(N)=O)nc2ccccc12` [Example 56, N^4-[1-(3-fluorobenzyl)-3-methyl-1H-pyrazol-4-yl]quinoline-2,4-dicarboxamide], the IC50 is 193 nM.
